For assay [1], the system named is 4IC cells. Kind of assay: Cell cycle profile of 4IC TNBC cells with TRAF3IP2 knockdown and/or Paclitaxel. The note with it: 4IC cells in vitro, vs 4ICControl shRNA. The format is cell-based, human. The source says: FIG. 7. […] Cell cycle profiles of 4ICControl shRNA, 4ICControl shRNA+Paclitaxel, 4ICTRAF3IP2 KD and 4ICTRAF3IP2 KD+Paclitaxel (A-D).
Paclitaxel has been previously shown to arrest cell cycle progression at the G2/M phase, resulting in apoptosis.

Assay [2] deals with 4IC tumors. Briefly: Effect of targeting TRAF3IP2 on chemoresistance in vivo (4IC tumors, Paclitaxel combination). Further details: species or system mice. The note with it: vs SCR-AO group. On the procedure: FIG. 16. Effect of targeting TRAF3IP2 on chemoresistance in vivo. Tumors were induced using 4IC cells (n=6 animals/group), and mice were treated with one of the following: SCR-AO, SCR-AO+Paclitaxel, TRAF3IP2-AO, or TRAF3IP2-AO+Paclitaxel. Animals in the 4IC SCR-AO group were euthanized by day 28 due to increased tumor […]. Paclitaxel reduced tumor volume by 42% and TRAF3IP2 targeting reduced tumor size by 78%.
At first, we induced tumors using wild type 4IC cells and a similar set up described in FIG. 12. After tumor induction, each group was treated with one of the following: SCR-AO, SCR-AO and Paclitaxel, TRAF3IP2-AO, or TRAF3IP2-AO and Paclitaxel. Animals in the SCR-AO group had to be euthanized by day 28 due to increased tumor burden. Paclitaxel reduced tumor volume by 42% and TRAF3IP2 targeting reduced tumor size by 78%.

Regarding `CC(=O)O[C@H]1C(=O)[C@@]2(C)[C@H]([C@H](OC(=O)c3ccccc3)[C@]3(O)C[C@H](OC(=O)[C@H](O)[C@@H](NC(=O)c4ccccc4)c4ccccc4)C(C)=C1C3(C)C)[C@]1(OC(C)=O)CO[C@@H]1C[C@@H]2O` [Paclitaxel], the “increase in the proportion of cells in G2” value in assay [1] amounted to 23%. Besides, the “reduction of tumor volume” value in assay [2] was 42%.

The values above are taken from US20230250428A1, “Method and composition for early detection of malignancies” (Alliance of Cardiovascular Researchers, priority 2022, published 2023).
